Laboratory results as given in paper PMC8975272, “Novel glucagon-like peptide-1 analogue exhibits potency-driven G-protein biased agonism with promising effects on diabetes and diabetic dry eye syndrome” (Bioengineered, 2022).
One block for each molecule: values may come before it.

Columns and labels:
[1] = Pharmacokinetics in CD-1 mice; assay type: in vivo, mouse
GLP-1R [2] = biological target: T1, GLP-1R (Homo sapiens, UniProt P43220); assay: GLP-1R binding affinity; design: expressed in transfected cells; settings: compared to Semaglutide
GLP-1R [3] = biological target: T1, GLP-1R; assay: cAMP accumulation (HTRF); assay type: cell-based; design: expressed in transfected cells
Method: (§1) HEK293 cells stably expressing human GLP-1R (hGLP-1 R) (generated in-house using HEK293 cell line purchased from ATCC, Cat# CRL-1573) were maintained in Dulbecco’s Modified Eagle Medium (DMEM, Gibco, 11,054,020) with 10% fetal bovine serum (FBS, Gibco, 10,099,133 C), 1% penicillin/streptomycin (Gibco, 10,378,016) and 1 mg/mL G418 (Gibco, 10,131,035). Wild-type INS-1 832/3 cells, or INS-1 832/3 cells lacking endogenous GLP-1 R (generated in-house using INS-1 832/3 cell line purchased from NTCC, Cat# CVCL_ZL55) were maintained in RPMI-1640 (Gibco, 22,400,071) with 1 mM sodium pyruvate (Gibco, 11,360,070), 50 μM β-mercaptoethanol (Gibco, 21,985,023), 10% FBS, and 1% penicillin/streptomycin. PathHunter CHO-K1-βarr2-EAGLP1R cells (DiscoverX) were maintained in F12 medium (Gibco, 11,320,033) with 10% FBS, 1% penicillin/streptomycin, 1 mg/mL G418 and 250 μg/mL hygromycin (Gibco, 10,687,010).
HEK293 stably expressing hGLP-1 R cells were stimulated with agonist for 30 min at 37°C in serum-free medium (Gibco, 12,753,018). cAMP was determined at the end of the incubation period by homogenous time resolved fluorescence (HTRF; cAMP Dynamic 2 kit, Cisbio) using a Molecular Devices iD5 plate reader.

hGLP-1 R = biological target: T2, hGLP-1 R (Homo sapiens, UniProt P43220); assay: GLP-1R recycling assay (exendin-4-TMR uptake); assay type: cell-based; settings: 100 nM agonist 1 hour, washout, exendin-4-TMR 1 or 3 hours; compared to Semaglutide
T2 construct: expressed in transfected cells; host or cells: INS-1 832/3 (abstract: 832/13) rat insulinoma cells
Method: INS-1 hGLP-1 R cells were seeded the day before the assay in 96-well imaging plates. Cells were washed twice with PBS, then stimulated with 100 nM of respective agonist in complete media, with an equal number of wells kept as vehicles. Following stimulation of the cells for 1 hour, they were washed twice with PBS and labeled with exendin-4-TMR13 for either 1 hour or 3 hours, washed again with PBS, and imaged via high content microscopy.

diabetic DES mice = assay: Chronic administration study in diabetic DES mice; assay type: in vivo, mouse; settings: for increase in number of conjunctival goblet cells vs control mice: PAS staining
Method: DES in db/db mice was induced by twice daily administration of 5 μL of 0.2% benzalkonium chloride (Sigma-Aldrich) for 7 days. All diabetic DES mice were divided into vehicle group, SM102 treatment groups (1, 3 and 9 nmol/kg), Semaglutide treatment group (15 nmol/kg), and dulaglutide (1.5 nmol/kg) (n = 8 per group; 4 male, 4 female). The drugs were injected subcutaneously into the neck region of the animals on every other day for 4 weeks.
The mouse’s lower eyelid was gently pulled downward, and a line with a 1 mm length of the phenol red cotton thread was placed on the upper part of the palpebral conjunctiva for 15 seconds near the inner part about one-third of the distance from the outer corner of the eyelid. The length of the colored part of the phenol red thread was recorded as the tear secretion. 1 μL of 0.1% liquid fluorescein sodium was instilled into the conjunctival sac followed by three blinks, and tear breakup time (BUT) was recorded in seconds.
[…] The levels of interleukin-6 (IL-6), interleukin-1β (IL-1β), tumor necrosis factor-α (TNF-α), transforming growth factor β1 (TGF-β1) and malondialdehyde (MDA) as well as superoxide dismutase (SOD) activity in the supernatant were measured using appropriate ELISA kits brought from R&D company (USA). The expression levels of p38/p-p38, JNK/pJNK and ERK/p-ERK were analyzed by Western blot methods as previously reported.
Hematoxylin and eosin (H&E) staining were performed as described below: Corneas were fixed in 4% formalin. After dehydration, the specimens were embedded in paraffin and serial sections of 6 μm thickness were cut and stained with a hematoxylin-eosin reagent. Periodic Acid–Schiff (PAS) staining were performed as described below: Conjunctiva was fixed in 4% formalin. After dehydration, the specimens were embedded in paraffin and serial sections of 6 μm thickness were cut and stained with 0.5% PAS staining. The number of positively stained cup-shaped cells in the stained conjunctival sections was counted using image-Pro Plus6.0 (MediaCybernetics, USA).

INS-1 832/3 cells = assay: Insulin release after overnight incubation, INS-1 832/3 cells; assay type: cell-based; settings: 16 h (overnight), range of concentrations, 11 mM glucose, HTRF
Method: (§2) Mouse islets (10/well) were incubated in triplicate for each condition and treatment. Islets were preincubated for 1 hour in 3 mM glucose KRH buffer prior to secretion assay (30 min) in 3 mM or 11 mM glucose with vehicle or 100 nM SM102 or Semaglutide. The secretion medium was then collected to measure the insulin and proinsulin concentrations using an insulin HTRF kit (Cisbio Bioassays). INS-1 832/3 cells were treated with the indicated concentrations of SM102 or Semaglutide for 16 h in complete RPMI1640 medium at 11 mM glucose. A sample of supernatant was collected and analyzed for insulin content by HTRF.

GLP-1R [4] = biological target: T1, GLP-1R; assay: GLP-1R endocytosis, high content imaging; assay type: cell-based; design: expressed in transfected cells; settings: no clear difference in kinetics between the two ligands
mouse pancreatic islets = assay: Static acute insulin secretion, mouse islets; assay type: cell-based
Method: Mice were euthanized by cervical dislocation and pancreatic islets isolated by collagenase digestion as previously described and cultured in RPMI 1640 medium, 11 mM glucose, supplemented with 10% (v/v) FBS plus penicillin (100 units/mL), and streptomycin (0.1 mg/mL) at 37°C in an atmosphere of humidified air (95%) and CO2 (5%).
as §2, with “Islets were preincubated for 1 hour in 3 mM glucose KRH buffer prior to secretion assay (30 min) in 3 mM or 11 mM glucose with vehicle or 100 nM SM102 or Semaglutide.” left out

db/db mice = assay: Chronic administration study in db/db mice; assay type: in vivo, mouse
Method: The diabetic db/db mice (half male and half female, 8–12 weeks, body weight- 40-50 g) were brought from Cavens Company Ltd. (Changzhou) and housed in individual ventilated cages with free access to food and water and maintained on a 12-hour light/dark cycle. Animals were acclimatized for 3 days. On day 0, each animal was weighed using a digital weighing balance. Blood was collected by retro-orbital plexus puncture. Blood glucose level was measured using a hand-held blood glucose meter (Johnson & Johnson) and %HbA1c was measured using auto fluorescence immunoanalyzer.
Animals were divided into treatment groups (n = 8 per group; 4 male, 4 female) with matched baseline %HbA1c levels (mean 7.3%). Vehicle, SM102 (1, 3 and 9 nmol/kg), Semaglutide (15 nmol/kg) were subcutaneously injected into the neck region of the animals on every other day for 4 weeks.
Body weight and food intake were monitored serially. On day 29 of the study, 24 h following the last dose, blood was collected for measurement of %HbA1c, triglycerides, insulin, C-peptide and glucagon. The function of β-cell was assessed via calculating the […] from blood concentrations of glucose and insulin.

GLP-1R [5] = biological target: T1, GLP-1R; assay: PathHunter β-arrestin-2 recruitment; assay type: cell-based; design: host or cells: CHO-K1 (PathHunter); settings: SM102 vs Semaglutide; 30 min at 37°C, luminescence
Method: as §1
PathHunter CHO-K1-βarr2-EA-GLP-1 R cells were stimulated with agonist for 30 min at 37°C in Ham’s F12 medium (Gibco, 11,765,054) without FBS. At the end of the incubation period cells were lysed by addition of PathHunter detection reagents and luminescent signal was subsequently recorded from each well.

[6] = all 3 doses of SM102, Western blot, p < 0.05
[7] = corneal homogenates, 4 weeks, ELISA

T1 sequence (P43220 24-463): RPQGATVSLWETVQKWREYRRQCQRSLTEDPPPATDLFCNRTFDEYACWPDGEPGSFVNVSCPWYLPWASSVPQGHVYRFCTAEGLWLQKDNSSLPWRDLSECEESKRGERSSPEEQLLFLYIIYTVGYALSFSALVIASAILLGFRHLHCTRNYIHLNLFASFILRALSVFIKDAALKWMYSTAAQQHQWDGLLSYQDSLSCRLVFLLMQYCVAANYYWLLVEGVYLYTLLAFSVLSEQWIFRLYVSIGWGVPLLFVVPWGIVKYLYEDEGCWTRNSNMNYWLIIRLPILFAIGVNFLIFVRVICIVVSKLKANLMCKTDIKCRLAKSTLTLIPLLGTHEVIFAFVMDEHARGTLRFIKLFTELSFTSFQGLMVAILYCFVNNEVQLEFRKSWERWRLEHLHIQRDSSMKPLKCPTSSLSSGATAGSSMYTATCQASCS
T2 sequence (P43220 24-463): as above

- Plasma half-life relative to SM-102 ([1]; subcutaneous injection, same dose, CD-1 mice): comparable
Compound: CC[C@H](C)[C@H](NC(=O)[C@H](Cc1ccccc1)NC(=O)[C@H](CCC(=O)O)NC(=O)[C@H](CCCCNC(=O)COCCOCCNC(=O)COCCOCCNC(=O)CC[C@H](NC(=O)CCCCCCCCCCCCCCCCC(=O)O)C(=O)O)NC(=O)[C@H](C)NC(=O)[C@H](C)NC(=O)[C@H](CCC(N)=O)NC(=O)CNC(=O)[C@H](CCC(=O)O)NC(=O)[C@H](CC(C)C)NC(=O)[C@H](Cc1ccc(O)cc1)NC(=O)[C@H](CO)NC(=O)[C@H](CO)NC(=O)[C@@H](NC(=O)[C@H](CC(=O)O)NC(=O)[C@H](CO)NC(=O)[C@@H](NC(=O)[C@H](Cc1ccccc1)NC(=O)[C@@H](NC(=O)CNC(=O)[C@H](CCC(=O)O)NC(=O)C(C)(C)NC(=O)[C@@H](N)Cc1cnc[nH]1)[C@@H](C)O)[C@@H](C)O)C(C)C)C(=O)N[C@@H](C)C(=O)N[C@@H](Cc1c[nH]c2ccccc12)C(=O)N[C@@H](CC(C)C)C(=O)N[C@H](C(=O)N[C@@H](CCCNC(=N)N)C(=O)NCC(=O)N[C@@H](CCCNC(=N)N)C(=O)NCC(=O)O)C(C)C [Semaglutide, reference compound]

- GLP-1 R binding affinity (GLP-1R [2]): moderate increases
- half-life ([1]; mouse, plasma, sc, single subcutaneous injection, 1 mg/kg, male CD-1 mice): ~47.6 h
- cAMP signaling potency (GLP-1R [3]; compared to Semaglutide, agonist 30 min at 37°C, serum-free medium, HTRF, n = 5): signaling potency was increased
- GLP-1 R recycling (hGLP-1 R): modestly reduced recycling
- GLP-1 R endocytosis (GLP-1R [4]): rapid GLP-1 R endocytosis
Compound: CC[C@H](C)[C@H](NC(=O)[C@H](Cc1ccccc1)NC(=O)[C@H](CCC(=O)O)NC(=O)[C@H](CCCCNC(=O)COCCOCCNC(=O)C(C)(C)NC(=O)CC[C@H](NC(=O)CCCCCCCCCCCCCCCCC(=O)O)C(=O)O)NC(=O)[C@H](C)NC(=O)[C@H](C)NC(=O)[C@H](CCC(N)=O)NC(=O)CNC(=O)[C@H](CCC(=O)O)NC(=O)[C@H](CC(C)C)NC(=O)[C@H](Cc1ccc(O)cc1)NC(=O)[C@H](CO)NC(=O)[C@H](CO)NC(=O)[C@@H](NC(=O)[C@H](CC(=O)O)NC(=O)[C@H](CO)NC(=O)[C@@H](NC(=O)[C@H](Cc1ccccc1)NC(=O)[C@@H](NC(=O)CNC(=O)[C@H](CCC(=O)O)NC(=O)C(C)(C)NC(=O)[C@@H](N)Cc1c[nH]cn1)[C@@H](C)O)[C@@H](C)O)C(C)C)C(=O)N[C@@H](C)C(=O)N[C@@H](Cc1c[nH]c2ccccc12)C(=O)N[C@@H](CC(C)C)C(=O)N[C@H](C(=O)N[C@@H](CCCNC(=N)N)C(=O)NCC(=O)N[C@@H](CCCNC(=N)N)C(=O)NCC(=O)N[C@@H](CC(C)C)C(N)=O)C(C)C [SM102]
- signaling selectivity in favor of cAMP compared to endocytosis and β-arrestin-2 recruitment (GLP-1R [3]; subtracted pEC50 estimates, SM102 vs Semaglutide, one-way ANOVA with Tukey's test): significant signaling selectivity in favor of cAMP
- breakup time of tear film (diabetic DES mice; 4-week treatment): significantly prolonged
- tear secretion level vs control group (diabetic DES mice; 4 weeks of treatment, phenol red cotton thread): significantly enhanced
- increase in number of conjunctival goblet cells vs control mice (diabetic DES mice; SM102 1 nmol/kg, 4 weeks): approximately 1 fold
- increase in number of conjunctival goblet cells vs control mice (diabetic DES mice; SM102 3 nmol/kg, 4 weeks): ~4 fold
- tear secretion level vs Semaglutide or dulaglutide (diabetic DES mice; SM102 9 nmol/kg, 4 weeks): significantly higher
- increase in number of conjunctival goblet cells vs control mice (diabetic DES mice; SM102 9 nmol/kg, 4 weeks): ~5 fold
- phosphorylation level of ERK vs model group (diabetic DES mice; [6]): significantly lower
- phosphorylation level of JNK vs model group (diabetic DES mice; [6]): significantly lower
- phosphorylation level of p38 vs model group (diabetic DES mice; [6]): significantly lower
- concentration of MDA vs vehicle group (diabetic DES mice; corneal homogenate, 4 weeks, ELISA): significantly decreased
- level of IL-1β vs control mice (diabetic DES mice; [7]): significantly reduced
- level of IL-6 vs control mice (diabetic DES mice; [7]): significantly reduced
- level of TGF-β1 vs control mice (diabetic DES mice; [7]): increased
- level of TNF-α vs control mice (diabetic DES mice; [7]): significantly reduced
- SOD activity (diabetic DES mice; dose range 1 ~ 9 nmol/kg, 4 weeks): dose-dependent significant increase
- corneal tissue damage (H&E staining) (diabetic DES mice; medium and high dose SM102, 4 weeks): significantly reversed corneal tissue damage
- insulin release responses, SM102 vs Semaglutide (INS-1 832/3 cells): virtually indistinguishable
- glucose-stimulated insulin secretion, SM102 vs Semaglutide, lower doses (mouse pancreatic islets; 1 and 10 nM, data not shown): differences were not apparent
- glucose-stimulated insulin secretion (GSIS) (mouse pancreatic islets; islets from C57BL/6 mice, 11 mM glucose, 100 nM agonist, 30 min, no difference between agonists): potentiation of GSIS
- improvement in blood glucose and insulin secretion vs Semaglutide 15 nmol/kg (db/db mice; SM102 1 nmol/kg, 4 weeks of treatment): comparable to Semaglutide
- therapeutic effect vs Semaglutide 15 nmol/kg (db/db mice; SM102 3 nmol/kg s.c. every other day, 28 days): comparable
- therapeutic effect vs Semaglutide 15 nmol/kg: weight loss, glucose, HOMA-IR (db/db mice; SM102 9 nmol/kg s.c. every other day, 28 days): superior
- β-arrestin-2 recruitment response potency or Emax (GLP-1R [5]): no differences in response potency or Emax
